Reference: patent US7683173B2, “Biphenyl compounds useful as muscarinic receptor antagonists” (Theravance, Inc., priority 2005, dated 2010)

Key:
[1] = molecular target: T1, M3 muscarinic receptor subtype (hM3) (Homo sapiens, UniProt P20309); test: Radioligand binding assay ([3H]-NMS displacement); conditions: tested in this or a similar assay
T1 construct: expressed in transfected cells
Description: CHO cell lines stably expressing cloned human hM1, hM2, hM3 and hM4 muscarinic receptor subtypes, respectively, were grown to near confluency in medium consisting of HAM's F-12 supplemented with 10% FBS and 250 μg/mL Geneticin. The cells were grown in a 5% CO2, 37° C. incubator and lifted with 2 mM EDTA in dPBS. Cells were collected by 5 minute centrifugation at 650×g, and cell pellets were either stored frozen at −80° C. or membranes were prepared immediately. For membrane preparation, cell pellets were resuspended in lysis buffer and homogenized with a Polytron PT-2100 tissue disrupter (Kinematica AG; 20 seconds×2 bursts). Crude membranes were centrifuged at 40,000×g for 15 minutes at 4° C. […] The protein concentration of the membrane suspension was determined by the method described in Lowry, O. et al., Journal of Biochemistry 193:265 (1951). […]
Radioligand binding assays were performed in 96-well microtiter plates in a total assay volume of 100 μL. […] Filter plates were rinsed three times with wash buffer (10 mM HEPES) to remove unbound radioactivity. […] The plates were then counted in a PerkinElmer Topcount liquid scintillation counter (PerkinElmer Inc., Wellesley, Mass.). Binding data were analyzed by nonlinear regression analysis with the GraphPad Prism Software package (GraphPad Software, Inc., San Diego, Calif.) using the one-site competition model. […]

[2] = Dynamic moisture sorption assessment; type: physicochemical
Description: A dynamic moisture sorption (DMS) assessment (also known as a moisture sorption-desorption profile) was performed for samples of the crystalline monopropionate salt using a VTI atmospheric microbalance, SGA-100 system (VTI Corp., Hialeah, Fla. 33016). A sample size of approximately 10 mg was used and the humidity was set at the ambient value at the start of the analysis. A typical DMS analysis consisted of three scans: ambient to 2% relative humidity (RH), 2% RH to 90% RH, 90% RH to 5% RH at a scan rate of 5% RH/step. The mass was measured every two minutes and the RH was changed to the next value (+/−5% RH) when the mass of the sample was stable to within 0.01% for 5 consecutive points.

Thermal analysis (DSC) = type: physicochemical; conditions: DSC trace
Description: Differential scanning calorimetry (DSC) was performed using a TA Instruments Model Q-10 module with a Thermal Analyst controller. Data were collected and analyzed using TA Instruments Thermal Solutions software. A sample of about 1 mg was accurately weighed into an aluminum pan with lid. The sample was evaluated using a linear heating ramp of 10° C./min from ambient temperature to approximately 300° C. The DSC cell was purged with dry nitrogen during use.

T1 sequence (P20309 whole entry): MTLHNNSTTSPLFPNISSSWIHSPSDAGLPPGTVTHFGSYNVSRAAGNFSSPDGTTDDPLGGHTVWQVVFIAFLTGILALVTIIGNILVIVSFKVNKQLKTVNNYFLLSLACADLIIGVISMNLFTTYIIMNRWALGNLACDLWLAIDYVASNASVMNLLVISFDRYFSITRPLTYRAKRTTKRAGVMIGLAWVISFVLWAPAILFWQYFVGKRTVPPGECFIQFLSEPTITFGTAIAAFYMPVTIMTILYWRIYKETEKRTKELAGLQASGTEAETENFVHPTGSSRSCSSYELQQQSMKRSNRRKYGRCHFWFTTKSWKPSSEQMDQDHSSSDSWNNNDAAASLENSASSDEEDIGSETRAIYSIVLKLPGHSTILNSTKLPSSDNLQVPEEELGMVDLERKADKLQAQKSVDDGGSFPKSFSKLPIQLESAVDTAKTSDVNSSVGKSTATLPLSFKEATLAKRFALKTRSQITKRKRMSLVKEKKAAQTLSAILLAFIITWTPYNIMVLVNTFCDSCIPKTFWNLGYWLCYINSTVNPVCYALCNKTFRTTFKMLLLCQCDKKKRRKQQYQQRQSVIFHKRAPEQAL

| SMILES | Ki [1] [nM] | hygroscopicity (sorption/desorption profile) ([2]; DMS trace) | weight gain ([2]; humidity range of 40-70% RH, micronized material) [%] | weight gain ([2]; humidity range of 40-70% RH, unmicronized) [%] | weight gain ([2]; humidity range of 40-75% RH) [%] | thermal stability (Thermal analysis (DSC)) |
| --- | --- | --- | --- | --- | --- | --- |
| O=C(Nc1ccccc1-c1ccccc1)OC1CCN(CCCN2CCN(CCCNCc3ccc(O)cc3)C2=O)CC1 [Example 1, Biphenyl-2-ylcarbamic Acid 1-(3-{3-[3-(4-Hydroxybenzylamino)propyl]-2-oxoimidazolidin-1-yl}propyl)piperidin-4-yl Ester] | < 5 |  |  |  |  |  |
| CCC(=O)O.O=C(Nc1ccccc1-c1ccccc1)OC1CCN(CCCN2CCN(CCCNCc3ccc(O)cc3)C2=O)CC1 [Example 2, Monopropionate Crystalline Salt of Biphenyl-2-ylcarbamic Acid 1-(3-{3-[3-(4-Hydroxybenzylamino)propyl]-2-oxoimidazolidin-1-yl}propyl)piperidin-4-yl Ester] |  | low hygroscopicity | 1.0 | 0.7 | 0.3 | good thermal stability |
